1 compound from patent US20070092942A1, “Ubiquitin specific enzymes of family herpesviridae” (priority 2005, published 2007) can be followed below.

Holding throughout (details): FIGS. 6-7
Assay [1] addresses T1, CYLD (Homo sapiens, UniProt Q9NQC7).
T1 sequence (Q9NQC7 1-956): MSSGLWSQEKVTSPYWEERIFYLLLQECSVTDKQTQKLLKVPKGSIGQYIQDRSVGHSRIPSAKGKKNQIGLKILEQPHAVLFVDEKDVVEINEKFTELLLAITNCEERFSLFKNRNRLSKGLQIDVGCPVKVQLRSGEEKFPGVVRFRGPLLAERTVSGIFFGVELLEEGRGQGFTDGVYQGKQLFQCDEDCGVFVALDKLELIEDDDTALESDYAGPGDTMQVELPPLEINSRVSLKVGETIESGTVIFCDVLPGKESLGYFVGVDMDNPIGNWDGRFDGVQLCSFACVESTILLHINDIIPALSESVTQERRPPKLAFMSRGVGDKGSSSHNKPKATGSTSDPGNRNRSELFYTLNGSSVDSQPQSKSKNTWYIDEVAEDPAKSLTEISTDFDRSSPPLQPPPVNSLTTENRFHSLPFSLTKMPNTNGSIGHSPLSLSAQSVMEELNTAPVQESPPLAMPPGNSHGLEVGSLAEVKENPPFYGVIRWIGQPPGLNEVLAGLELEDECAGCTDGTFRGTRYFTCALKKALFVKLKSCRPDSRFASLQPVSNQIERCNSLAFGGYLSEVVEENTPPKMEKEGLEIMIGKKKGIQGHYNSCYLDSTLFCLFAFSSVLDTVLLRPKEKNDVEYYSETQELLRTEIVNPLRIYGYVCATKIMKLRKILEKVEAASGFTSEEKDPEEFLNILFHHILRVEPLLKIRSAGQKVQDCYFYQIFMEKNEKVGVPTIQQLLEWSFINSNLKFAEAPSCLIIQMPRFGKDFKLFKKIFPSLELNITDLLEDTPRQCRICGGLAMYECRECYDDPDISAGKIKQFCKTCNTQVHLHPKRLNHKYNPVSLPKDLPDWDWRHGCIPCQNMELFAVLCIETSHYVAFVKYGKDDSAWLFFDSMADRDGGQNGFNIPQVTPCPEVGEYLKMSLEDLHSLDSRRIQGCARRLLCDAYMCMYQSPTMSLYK
As to the kind of experiment: Western blot inhibitor screen, HA tagged Ub-VME probe, other enzymes. In kind it is binding. Background: In western blotting, separated proteins are transferred to a membrane and probed.

For assay [2], the target named is T2, UCH-3 (Homo sapiens, UniProt P15374).
T2 sequence (P15374 1-230): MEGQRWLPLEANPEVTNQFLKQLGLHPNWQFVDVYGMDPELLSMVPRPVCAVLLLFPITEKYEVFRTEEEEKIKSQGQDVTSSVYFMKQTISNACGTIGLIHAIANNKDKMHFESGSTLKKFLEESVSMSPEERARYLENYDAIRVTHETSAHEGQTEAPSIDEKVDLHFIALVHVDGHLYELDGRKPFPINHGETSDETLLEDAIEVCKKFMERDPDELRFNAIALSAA
The assay is described as above. In kind it is binding.

Assay [3] deals with T3, UCH-1 (Homo sapiens, UniProt P09936).
T3 sequence (P09936 1-223): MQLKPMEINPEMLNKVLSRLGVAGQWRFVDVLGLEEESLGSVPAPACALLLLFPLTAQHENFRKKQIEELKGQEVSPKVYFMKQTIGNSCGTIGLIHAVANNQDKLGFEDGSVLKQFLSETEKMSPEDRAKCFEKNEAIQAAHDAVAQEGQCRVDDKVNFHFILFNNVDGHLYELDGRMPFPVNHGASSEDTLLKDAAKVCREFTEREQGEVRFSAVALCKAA
The description is as above. Type of assay: binding.

In assay [4] the target is USP7 (Homo sapiens, UniProt Q93009). Described as above. In kind it is binding.
USP7, sequence (Q93009 whole entry, species assumed): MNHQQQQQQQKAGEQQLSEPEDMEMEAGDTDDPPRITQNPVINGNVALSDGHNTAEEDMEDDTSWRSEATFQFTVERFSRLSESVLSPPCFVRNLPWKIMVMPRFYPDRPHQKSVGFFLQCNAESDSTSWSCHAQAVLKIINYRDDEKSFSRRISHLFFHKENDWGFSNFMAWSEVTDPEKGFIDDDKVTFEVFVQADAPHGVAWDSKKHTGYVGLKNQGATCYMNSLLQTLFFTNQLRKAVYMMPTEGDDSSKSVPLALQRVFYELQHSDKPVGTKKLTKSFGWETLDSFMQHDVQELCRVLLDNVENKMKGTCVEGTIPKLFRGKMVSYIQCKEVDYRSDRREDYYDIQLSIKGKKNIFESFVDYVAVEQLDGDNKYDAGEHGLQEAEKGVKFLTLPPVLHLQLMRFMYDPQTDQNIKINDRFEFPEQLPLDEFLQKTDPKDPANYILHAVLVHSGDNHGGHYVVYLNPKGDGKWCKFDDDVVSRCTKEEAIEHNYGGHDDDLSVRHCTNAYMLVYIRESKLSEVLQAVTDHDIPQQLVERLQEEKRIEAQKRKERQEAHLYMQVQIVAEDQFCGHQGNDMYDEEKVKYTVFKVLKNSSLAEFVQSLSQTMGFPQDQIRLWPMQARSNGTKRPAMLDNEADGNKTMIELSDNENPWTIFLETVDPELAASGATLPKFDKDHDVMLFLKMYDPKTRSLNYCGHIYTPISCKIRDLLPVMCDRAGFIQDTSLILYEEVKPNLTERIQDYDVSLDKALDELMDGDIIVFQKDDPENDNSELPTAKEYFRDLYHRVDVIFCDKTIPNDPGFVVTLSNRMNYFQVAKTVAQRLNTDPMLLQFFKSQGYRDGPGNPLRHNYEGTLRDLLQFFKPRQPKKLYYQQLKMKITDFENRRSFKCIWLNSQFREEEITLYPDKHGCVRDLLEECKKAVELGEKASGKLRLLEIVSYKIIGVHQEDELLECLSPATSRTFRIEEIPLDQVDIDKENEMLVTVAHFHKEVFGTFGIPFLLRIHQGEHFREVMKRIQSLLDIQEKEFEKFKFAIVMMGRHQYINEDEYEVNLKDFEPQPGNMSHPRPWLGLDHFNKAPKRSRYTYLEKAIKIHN
In assay [5] the target is Ataxin-3 (Homo sapiens, UniProt P54252). Described as above. In kind it is binding.
Ataxin-3, sequence (P54252 whole entry, species assumed): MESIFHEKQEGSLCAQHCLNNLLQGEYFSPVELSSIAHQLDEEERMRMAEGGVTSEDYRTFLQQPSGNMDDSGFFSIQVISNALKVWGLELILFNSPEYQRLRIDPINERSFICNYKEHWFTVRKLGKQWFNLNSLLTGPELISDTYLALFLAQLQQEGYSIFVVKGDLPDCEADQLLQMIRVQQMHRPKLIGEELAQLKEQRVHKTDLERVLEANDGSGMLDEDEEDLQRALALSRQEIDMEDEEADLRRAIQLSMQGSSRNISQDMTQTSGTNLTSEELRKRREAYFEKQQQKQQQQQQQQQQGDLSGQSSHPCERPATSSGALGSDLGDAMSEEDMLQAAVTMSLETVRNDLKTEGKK
The target of assay [6] is T4, Cezanne (Homo sapiens, UniProt Q6GQQ9).
T4 sequence (Q6GQQ9 1-843): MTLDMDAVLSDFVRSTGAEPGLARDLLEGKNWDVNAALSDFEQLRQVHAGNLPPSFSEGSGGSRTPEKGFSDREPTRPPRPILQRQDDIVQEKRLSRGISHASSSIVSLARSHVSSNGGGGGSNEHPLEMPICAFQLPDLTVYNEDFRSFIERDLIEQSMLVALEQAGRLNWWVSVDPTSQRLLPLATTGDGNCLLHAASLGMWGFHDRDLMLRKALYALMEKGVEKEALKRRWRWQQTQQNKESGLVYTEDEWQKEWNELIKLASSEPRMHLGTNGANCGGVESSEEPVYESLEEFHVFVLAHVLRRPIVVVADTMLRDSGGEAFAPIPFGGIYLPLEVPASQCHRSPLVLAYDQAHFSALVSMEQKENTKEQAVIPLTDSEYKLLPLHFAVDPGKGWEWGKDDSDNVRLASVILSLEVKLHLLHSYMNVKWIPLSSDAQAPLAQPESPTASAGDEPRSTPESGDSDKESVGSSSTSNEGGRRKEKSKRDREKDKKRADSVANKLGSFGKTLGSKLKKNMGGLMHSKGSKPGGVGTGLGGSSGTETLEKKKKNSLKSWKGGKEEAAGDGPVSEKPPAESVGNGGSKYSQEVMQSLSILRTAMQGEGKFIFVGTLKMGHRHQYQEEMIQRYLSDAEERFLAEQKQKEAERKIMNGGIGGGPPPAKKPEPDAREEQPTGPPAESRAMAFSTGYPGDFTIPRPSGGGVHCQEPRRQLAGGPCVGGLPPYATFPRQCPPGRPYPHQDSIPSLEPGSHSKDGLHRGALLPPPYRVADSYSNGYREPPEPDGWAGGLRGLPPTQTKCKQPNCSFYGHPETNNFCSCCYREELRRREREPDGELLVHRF
The assay is described as above. Type of assay: binding.

Assay [7] concerns UL36. The experiment in a line: Western blot screen for inhibitors: anti-HA blot of UL36 bound to HA tagged Ub-VME probe. In kind it is binding, HSV-1. From the text: FIGS. 6-7 is a series photographs showing the results of a screen for inhibitors of the Herpes deubiquitinating enzyme. The photographs show the results of Western blot assays: anti-HA blots for detecting UL36 bound to the HA tagged Ub-VME probe.

Peptide text beside a SMILES is read from it. * marks the point of attachment. Cbz = O=C(OCc1ccccc1)*; CH2F = FC*

With `CC(C)[C@H](NC(=O)OCc1ccccc1)C(=O)N[C@@H](C)C(=O)N[C@@H](C)C(=O)CF` [Z-VA-L-A-fink] (Cbz-Val-Ala-Ala-CH2F), the “Inhibition of CYLD” value in assay [1] was “did not inhibit”. The “Inhibition of UCH-3” value in assay [2] was “did not inhibit”. Also, the “Inhibition of UCH-1” value in assay [3] is “did not inhibit”. Further, in assay [4], the “Inhibition of USP7” value was “did not inhibit”. The “Inhibition of Ataxin-3” value in assay [5] is recorded as “did not inhibit”. For the same compound, in assay [6], the “Inhibition of Cezanne” value is “did not inhibit”. In addition, in assay [7], the “Inhibition of UL36 (HA band of UL36 bound to HA tagged Ub-VME probe decreases or disappears)” value is reported as “specifically inhibited”.
